Converted amounts (≈) assume the structure as drawn. Like-named read-outs stand apart in the source and are kept apart here.
Assays:
Serratia marcescens X99 = test: MIC, standard agar-dilution assay (Table VI); format: cell-based
Protocol: (§1) Especially noteworthy is the improved activity against gram-negative bacteria for several derivatives when compared to the activity of OMT. […] The MIC's in Tables V and VI were determined by standard agar-dilution assays. The MIC's in Table VII were obtained using a conventional broth-dilution microtiter test.

[1] = test system: Pseudomonas aeruginosa Ps18; test: MIC, standard agar-dilution assay (Table VI); format: cell-based
Protocol: as §1

[2] = test system: Pseudomonas aeruginosa X239; test: MIC, standard agar-dilution assay (Table VI); format: cell-based
Protocol: as §1

[3] = test system: Pseudomonas aeruginosa X528; test: MIC, standard agar-dilution assay (Table VI); format: cell-based
Protocol: as §1

Salmonella typhi 1335 = test: MIC, standard agar-dilution assay (Table VI); format: cell-based; settings: Salmonella enterica
Summary of the method: (§2)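 Growth inhibition in liquid medium, in a routine microtiter broth-dilution series, gave the MIC against staphylococci and pasteurellae; the gram-negative enteric strain was tested by conventional agar dilution instead.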

[4] = test system: Salmonella heidelberg X514; test: MIC, standard agar-dilution assay (Table VI); format: cell-based; settings: Salmonella enterica
Summary of the method: as §2

[5] = test system: Citrobacter freundii CF17; test: MIC, standard agar-dilution assay (Table VI); format: cell-based
Summary of the method: as §2

[6] = test system: Enterobacter aerogenes EB17; test: MIC, standard agar-dilution assay (Table VI); format: cell-based; settings: Klebsiella aerogenes
Summary of the method: (§3)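 Serial compound dilutions were incorporated into agar for testing E. aerogenes. Dilutions in broth, arranged in microtiter wells, were used for S. aureus and P. multocida.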

Proteus rettgeri C24 = test: MIC, standard agar-dilution assay (Table VI); format: cell-based; settings: Providencia rettgeri, P. rettgeri C24
Protocol: as §1

[7] = test system: Enterobacter aerogenes C32; test: MIC, standard agar-dilution assay (Table VI); format: cell-based; settings: Klebsiella aerogenes
Summary of the method: as §3

[8] = test system: Klebsiella pneumoniae X68; test: MIC, standard agar-dilution assay (Table VI); format: cell-based
Summary of the method: as §2

Serratia marcescens SE3 = test: MIC, standard agar-dilution assay (Table VI); format: cell-based
Summary of the method: as §2

Pasteurella multocida = test: Protection of one-day-old chicks against Pasteurella multocida infection (Table IX); format: in vivo; settings: subcutaneous 30 mg/kg × 2, 1 and 4 hours post-challenge
Summary of the method: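 One-day-old chicks were challenged subcutaneously with 0.1 ml of a twenty-hour tryptose broth culture of avian P. multocida. Compound was given subcutaneously at 30 mg/kg, 1 and 4 hours post-challenge, and protection against death was followed, with non-medicated infected chicks as controls.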

Escherichia coli TEM = test: MIC, standard agar-dilution assay (Table V); format: cell-based; settings: Escherichia coli
Protocol: The MIC's in Tables V and VI were determined by standard agar-dilution assays. The MIC's in Table VII were obtained using a conventional broth-dilution microtiter test.

[9] = P. aeruginosa X528, agar dilution, read-out: MIC
[10] = P. aeruginosa Ps18, agar dilution, read-out: MIC
[11] = C. freundii CF17, agar dilution, read-out: MIC
[12] = S. marcescens SE3, agar dilution, read-out: MIC
[13] = S. marcescens X99, agar dilution, read-out: MIC
[14] = P. aeruginosa X239, agar dilution, read-out: MIC
[15] = S. heidelberg X514, agar dilution, read-out: MIC
[16] = E. aerogenes EB17, agar dilution, read-out: MIC
[17] = E. aerogenes C32, agar dilution, read-out: MIC
[18] = E. coli TEM, agar dilution, read-out: MIC

For `CCC1OC(=O)CC(O)C(C)C(OC2OC(C)C(O)C(N(C)C)C2O)C(CC=O)CC(C)C(=O)C=CC(C)=CC1CSC(C)=O` (stereo not shown) [Compound 7, 23-Deoxy-23-(acetyl)thio-OMT], the MIC (Serratia marcescens X99; X99) was > 128 µg/mL, the MIC ([1]; PS18) was > 128 µg/mL and the MIC ([2]; X239) was > 128 µg/mL. The MIC [3, 9] was 32 µg/mL (≈ 48.8 µM), the MIC (Salmonella typhi 1335) was > 128 µg/mL and the MIC ([4]; X514) was > 128 µg/mL. The MIC ([5]; CF17) was > 128 µg/mL, the MIC ([6]; EB17) was > 128 µg/mL and the MIC (Proteus rettgeri C24) was 64 µg/mL (≈ 97.6 µM). The MIC ([7]; C32) was > 128 µg/mL, the MIC ([8]; X68) was > 128 µg/mL and the MIC (Serratia marcescens SE3; SE3) was > 128 µg/mL. The “Number of deaths/number treated” value (Pasteurella multocida) was 10/10.

Work on `CCC1OC(=O)CC(O)C(C)C(OC2OC(C)C(O)C(N(C)C)C2O)C(CC=O)CC(C)C(=O)C=CC(C)=CC1CN=[N+]=[N-]` (stereo not shown) [Compound 8, 23-Deoxy-23-azido-OMT] yielded an MIC (Serratia marcescens X99; X99) of 64 µg/mL (≈ 103 µM), an MIC [1, 10] of 32 µg/mL (≈ 51.4 µM) and an MIC ([2]; X239) of 64 µg/mL (≈ 103 µM). For the same molecule, the MIC [3, 9] was 16 µg/mL (≈ 25.7 µM), the MIC (Salmonella typhi 1335) was 64 µg/mL (≈ 103 µM) and the MIC ([4]; X514) was 64 µg/mL (≈ 103 µM). The MIC [5, 11] was > 128 µg/mL, the MIC ([6]; EB17) was 64 µg/mL (≈ 103 µM) and the MIC (Proteus rettgeri C24) was 32 µg/mL (≈ 51.4 µM). The MIC ([7]; C32) was 64 µg/mL (≈ 103 µM), the MIC ([8]; X68) was 64 µg/mL (≈ 103 µM) and the MIC (Serratia marcescens SE3; [12]) was > 128 µg/mL. The MIC (Escherichia coli TEM) was 16 µg/mL (≈ 25.7 µM) and the “Number of deaths/number treated” value (Pasteurella multocida) was 10/10.

For `CCC1OC(=O)CC(O)C(C)C(OC2OC(C)C(O)C(N(C)C)C2O)C(CC=O)CC(C)C(=O)C=CC(C)=CC1CSc1nnc(C)s1` (stereo not shown) [Compound 3, 23-Deoxy-23-(5-methyl-1,3,4-thiadiazol-2-yl)thio-OMT], the MIC (Serratia marcescens X99; [13]) was > 128 µg/mL, the MIC [1, 10] was > 128 µg/mL and the MIC [2, 14] was > 128 µg/mL. For the same molecule, the MIC ([3]; X528) was 64 µg/mL (≈ 89.9 µM), the MIC (Salmonella typhi 1335) was > 128 µg/mL and the MIC [4, 15] was > 128 µg/mL. For the same molecule, the MIC [5, 11] was > 128 µg/mL, the MIC [6, 16] was > 128 µg/mL and the MIC (Proteus rettgeri C24) was 64 µg/mL (≈ 89.9 µM). The MIC [7, 17] was > 128 µg/mL, the MIC ([8]; K. pneumoniae X68, agar dilution, read-out: MIC) was > 128 µg/mL and the MIC (Serratia marcescens SE3; [12]) was > 128 µg/mL. The MIC (Escherichia coli TEM; [18]) was 32 µg/mL (≈ 44.9 µM) and the “Number of deaths/number treated” value (Pasteurella multocida) was 10/10.

`CCC1OC(=O)CC(O)C(C)C(OC2OC(C)C(O)C(N(C)C)C2O)C(CC=O)CC(C)C(=O)C=CC(C)=CC1CSc1ccccc1` (stereo not shown) [Compound 2, 23-Deoxy-23-(phenyl)thio-OMT] showed an MIC (Serratia marcescens X99; [13]) of 64 µg/mL (≈ 92.8 µM), an MIC [1, 10] of 64 µg/mL (≈ 92.8 µM) and an MIC [2, 14] of 64 µg/mL (≈ 92.8 µM). For the same molecule, the MIC ([3]; X528) was 16 µg/mL (≈ 23.2 µM), the MIC (Salmonella typhi 1335) was 64 µg/mL (≈ 92.8 µM) and the MIC ([4]; X514) was 64 µg/mL (≈ 92.8 µM). It also gave an MIC ([5]; CF17) of 32 µg/mL (≈ 46.4 µM), an MIC ([6]; EB17) of 32 µg/mL (≈ 46.4 µM) and an MIC (Proteus rettgeri C24) of 16 µg/mL (≈ 23.2 µM). It also gave an MIC ([7]; C32) of 32 µg/mL (≈ 46.4 µM), an MIC ([8]; X68) of 32 µg/mL (≈ 46.4 µM) and an MIC (Serratia marcescens SE3; [12]) of 64 µg/mL (≈ 92.8 µM). For the same molecule, the MIC (Escherichia coli TEM) was 8 µg/mL (≈ 11.6 µM) and the “Number of deaths/number treated” value (Pasteurella multocida) was 10/10.

For `CCC1OC(=O)CC(O)C(C)C(OC2OC(C)C(O)C(N(C)C)C2O)C(CC=O)CC(C)C(=O)C=CC(C)=CC1CSc1nnnn1C` (stereo not shown) [Compound 5, 23-Deoxy-23-(1-methyltetrazol-5-yl)thio-OMT], the MIC (Serratia marcescens X99; X99) was > 128 µg/mL, the MIC ([1]; PS18) was > 128 µg/mL and the MIC ([2]; X239) was > 128 µg/mL. The MIC ([3]; X528) was 64 µg/mL (≈ 92 µM), the MIC (Salmonella typhi 1335) was > 128 µg/mL and the MIC ([4]; X514) was > 128 µg/mL. The MIC ([5]; CF17) was > 128 µg/mL, the MIC ([6]; EB17) was > 128 µg/mL and the MIC (Proteus rettgeri C24) was 64 µg/mL (≈ 92 µM). For the same molecule, the MIC ([7]; C32) was > 128 µg/mL, the MIC ([8]; X68) was > 128 µg/mL and the MIC (Serratia marcescens SE3; SE3) was > 128 µg/mL. For the same molecule, the MIC (Escherichia coli TEM; [18]) was 32 µg/mL (≈ 46 µM) and the “Number of deaths/number treated” value (Pasteurella multocida) was 3/10.

For `CCC1OC(=O)CC(O)C(C)C(OC2OC(C)C(O)C(N(C)C)C2O)C(CC=O)CC(C)C(=O)C=CC(C)=CC1CF` (stereo not shown) [Compound 15, 23-Deoxy-23-fluoro-OMT], the MIC (Serratia marcescens X99; [13]) was 64 µg/mL (≈ 107 µM), the MIC [1, 10] was 32 µg/mL (≈ 53.4 µM) and the MIC [2, 14] was 64 µg/mL (≈ 107 µM). The MIC [3, 9] was 16 µg/mL (≈ 26.7 µM), the MIC (Salmonella typhi 1335) was 64 µg/mL (≈ 107 µM) and the MIC [4, 15] was 64 µg/mL (≈ 107 µM). The MIC [5, 11] was > 128 µg/mL, the MIC [6, 16] was 64 µg/mL (≈ 107 µM) and the MIC (Proteus rettgeri C24) was 32 µg/mL (≈ 53.4 µM). For the same molecule, the MIC [7, 17] was 64 µg/mL (≈ 107 µM), the MIC ([8]; X68) was 64 µg/mL (≈ 107 µM) and the MIC (Serratia marcescens SE3; [12]) was > 128 µg/mL. The MIC (Escherichia coli TEM) was 8 µg/mL (≈ 13.3 µM).

Reference: patent US4459290A, “C-23-Modified derivatives of OMT, pharmaceutical compositions and method of use” (priority 1982, dated 1984)
